Patent publication US4513008A, “Virucidal compositions and therapy” (The Vinoxen Company, Inc., priority 1982, dated 1985)
Converted amounts (≈) assume the structure as drawn.

System: herpes simplex virus type 2 (HSV-2)
Assay: In vitro HSV-2 bioassay: virucidal plaque assay (HEP-2 cells)
Type: cell-based, HSV-2 strain 333
Settings: for MIC: Human alphaherpesvirus 2, 0.5 h, Table 4 run, 30 min at 25° C., upper limit, dilutions to 1:12800, read-out: MIC (lowest concentration producing a 3-log reduction in virus titer); for virucidal activity against HSV-2 in words: in vitro bioassay
Procedure: Evidence of the efficacy of the virucides of the invention in vitro has been obtained from bioassay using HSV-2, using a standard assay procedure. Serial dilutions of the compounds were tested for their ability to prevent plaque formation by a stock virus suspension. Reduction of plaque titer by test compounds as compared to mock treated controls was indicative of virucidal activity. […] These represent the upper limit for the drug concentration, since dilutions were not carried beyond 1:6400 and in some cases 1:12800.
Cell Culture. Cell cultures used for the propagation and titration of HSV-2 were the human diploid lung embryonic line MRC-5 and the human malignant epitheloid cell line HEP-2 respectively. Stock monolayer cultures of both cell lines were propagated in Dulbecco's Modified Eagle's medium (DME) supplemented with 10% (V/V) calf serum. Spinner cultures for mass production of HEP-2 cells were grown in Joklik's medium supplemented with 10% (V/V) calf serum and 1% (W/V) pluronic acid. Monolayer cultures of HEP-2 cells for plaque or virucidal assay were seeded into 60 mm dishes in DME supplemented with 10% calf serum and antibiotics. Stock cultures were maintained in antibiotic free medium.
Herpes simplex virus, type 2 (HSV-2) strain 333 was obtained from Dr. John Hughes of the Dept. of Medical Microbiology, College of Medicine, The Ohio State University. Stocks of HSV-2 were prepared in the human diploid embryonic lung cell line, MRC-5. Confluent MRC-5 monolayer cultures in T-75 plastic flasks were washed one time with Hank's and Balanced Salt solution (HBSS) and infected with 0.5 ml of HSV-2, strain 333 stock. Virus was adsorbed for 1 hour at 37° C. Then the culture was refed with 15 ml of DME supplemented with 1% (V/V) calf serum. Virus was harvested 48 hours later when cytopathology was complete. Cultures were frozen and thawed rapidly three times to release cell associated virus, clarified by centrifugation at 10,000×g for 15 minutes at 4° C., aliquoted into 5 ml lots and frozen at -70° C. One lot was taken for virus titration.
HSV-2 was titrated by plaque assay in HEP-2 cells under a semi-solid methyl cellulose overlay. Tenfold serial dilutions of virus were prepared in HBSS and 0.3 ml aliquots of each dilution inoculated onto triplicate HEP-2 cell monolayers in 60 mm plastic petri dishes. Adsorption of virus was for 1 hour at 37° C. Plates were then overlayed with 5 ml of a 1:1 mixture of 2×DME supplemented with 2% (V/V) calf serum and 3% (W/V) methyl cellulose to give a final 1×DME supplemented with 1% calf serum and 1.5% methylcellulose. Infected plates were incubated at 37° C. in a humidified 10% CO2 atmosphere for 48 hours. Virus plaques were visualized by staining with crystal violet and counted under a dissecting microscope. Virus titers were calculated from the plaque numbers by averaging the plaque count and multiplying by 3.3 (0.3 ml plates).
The following procedure was employed to assay virucidal activity in various test samples. Compounds were received as a solution in DMSO and were serially diluted in HBSS as described for each experiment. For the test, 1 ml of each dilution was mixed with 1 ml of a stock virus suspension diluted to approximately 9×10^3 plaque forming units (P.F.U.)/ml. This test mixture was incubated at 25° C. for 30 minutes, then inoculated onto a cell culture (HEP-2) for plaque assay as described previously. Mock treated (virus plus HBSS) controls were included with each test. Any reduction of plaque titer by test compounds as compared to the mock treated control was indicative of virucidal activity.
Samples from RP-HPLC fractionation of the CLOH, produced according to Example 2, as well as purified samples of palmitic, myristic and oleic acids and Vitamin D2, were tested for HSV-2 bioactivity. […] Pure oleic acid was not active in this assay, nor were palmitic and myristic acids and Vitamin D2. […]

[1] = Table 3, dilution 1:10, control titer 4.5 × 10^3
[2] = Table 3, dilution 1:400, TNTC = too numerous to count
[3] = Table 3, dilution 1:800, TNTC = too numerous to count
[4] = Table 3, dilution 1:1600, TNTC = too numerous to count
[5] = Table 3, dilution 1:3200, TNTC = too numerous to count
[6] = Table 3, dilution 1:6400, TNTC = too numerous to count
[7] = Table 3, dilution 1:12800, TNTC = too numerous to count
[8] = Table 1, dilution 1:10, TNTC = too numerous to count
[9] = Table 1, dilution 1:100, TNTC = too numerous to count
[10] = Table 1, dilution 1:200, TNTC = too numerous to count
[11] = Table 1, dilution 1:400, TNTC = too numerous to count
[12] = Table 1, dilution 1:800, TNTC = too numerous to count
[13] = Table 1, dilution 1:1600, TNTC = too numerous to count
[14] = Table 1, dilution 1:3200, TNTC = too numerous to count
[15] = Table 1, dilution 1:6400, TNTC = too numerous to count

CC/C=C\C/C=C\C/C=C\C/C=C\C/C=C\CCCC(=O)O [EPA, eicosapentaenoic acid]
MIC: 0.37 µg/mL (≈ 1.22 µM)
plaque count (Table 3, dilution 1:10): 0
titer [1]: 0
plaque count (Table 3, dilution 1:100): 0.5
titer (Table 3, dilution 1:100): 1.7 × 10^0
titer (Table 3, dilution 1:400): 1.7 × 10^0
plaque count [2]: 0.5
titer (Table 3, dilution 1:800): 1.7 × 10^0
plaque count [3]: 0.5
titer (Table 3, dilution 1:1600): 1.7 × 10^0
plaque count [4]: 0.5
titer (Table 3, dilution 1:3200): 1.7 × 10^0
plaque count [5]: 0.5
titer (Table 3, dilution 1:6400): 1.7 × 10^0
plaque count [6]: 0.5
titer (Table 3, dilution 1:12800): 1.7 × 10^0
plaque count [7]: 0.5

CCC=CCC=CCC=CCC=CCC=CCCCC(=O)OC [EPA--ME, eicosapentaenoic acid, methyl ester]
MIC: 540 µg/mL (≈ 1710 µM)
plaque count (Table 3, dilution 1:10): 0
titer [1]: 0
plaque count (Table 3, dilution 1:100): 2.5
titer (Table 3, dilution 1:100): 8.3 × 10^0
titer (Table 3, dilution 1:400): 2.5 × 10^1
plaque count [2]: 7.5
titer (Table 3, dilution 1:800): 4.5 × 10^1
plaque count [3]: 13.5
titer (Table 3, dilution 1:1600): 6.4 × 10^1
plaque count [4]: 19.5
titer (Table 3, dilution 1:3200): 1.4 × 10^2
plaque count [5]: 42.5
titer (Table 3, dilution 1:6400): 1.2 × 10^2
plaque count [6]: 36.5
titer (Table 3, dilution 1:12800): 2.2 × 10^2
plaque count [7]: 66

CCC=CCC=CCC=CCC=CCC=CCC=CCCC(=O)OC [DHA--ME, docasahexaenoic acid, methyl ester]
plaque count (Table 3, dilution 1:10): 95
titer [1]: 3.1 × 10^2
plaque count (Table 3, dilution 1:100): 293
titer (Table 3, dilution 1:100): 9.7 × 10^2
titer (Table 3, dilution 1:400): TNTC
plaque count [2]: TNTC
titer (Table 3, dilution 1:800): TNTC
plaque count [3]: TNTC
titer (Table 3, dilution 1:1600): TNTC
plaque count [4]: TNTC
titer (Table 3, dilution 1:3200): TNTC
plaque count [5]: TNTC
titer (Table 3, dilution 1:6400): TNTC
plaque count [6]: TNTC
titer (Table 3, dilution 1:12800): TNTC
plaque count [7]: TNTC

CCCCCCCCCCCCCCCC(=O)O [Palmitic acid, reference compound]
plaque count [8]: TNTC
plaque count [9]: TNTC
plaque count [10]: TNTC
plaque count [11]: TNTC
plaque count [12]: TNTC
plaque count [13]: TNTC
plaque count [14]: TNTC
plaque count [15]: TNTC
virucidal activity against HSV-2 in words: not active

C=C1CC[C@H](O)C/C1=C/C=C1\CCC[C@]2(C)[C@@H]([C@H](C)/C=C/[C@H](C)C(C)C)CC[C@@H]12 [Vitamin D2, reference compound]
plaque count [8]: TNTC
plaque count [9]: TNTC
plaque count [10]: TNTC
plaque count [11]: TNTC
plaque count [12]: TNTC
plaque count [13]: TNTC
plaque count [14]: TNTC
plaque count [15]: TNTC
virucidal activity against HSV-2 in words: not active

CCCCCCCCCCCCCC(=O)O [Myristic acid, reference compound]
plaque count [8]: TNTC
plaque count [9]: TNTC
plaque count [10]: TNTC
plaque count [11]: TNTC
plaque count [12]: TNTC
plaque count [13]: TNTC
plaque count [14]: TNTC
plaque count [15]: TNTC
virucidal activity against HSV-2 in words: not active
